In patent US10994015B2, “EGFR proteolysis targeting chimeric molecules and associated methods of use” (Arvinas Operations, Inc., priority 2016, dated 2021):

Key:
EGFR L858R/T790M = EGFR L858R/T790M (Homo sapiens (Human), UniProt P00533, L858R/T790M); assay: TR-FRET assay for ERBB kinases; type: biochemical; conditions: geometric mean if measured more than once
Summary of the method: (§1)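 Phosphotyrosine on fluorescein poly-GluTyr was detected by Tb-pY20 antibody after EDTA quench, reading emission at 520 and 490 nm. The kinase was exposed to compound for 10 min before an ATP-containing substrate mix (3 mM ATP as added) was introduced. Turnover lasted 10 min at room temperature.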

EGFR WT = EGFR WT (Homo sapiens (Human), UniProt P00533); assay: TR-FRET assay for ERBB kinases; type: biochemical; conditions: geometric mean if measured more than once
Summary of the method: as §1

EGFR L858R/T790M/C797S = EGFR L858R/T790M/C797S (Homo sapiens (Human), UniProt P00533, C797S/L858R/T790M); assay: TR-FRET assay for ERBB kinases; type: biochemical; conditions: geometric mean if measured more than once
Summary of the method: as §1

[1] = target: EGFR L858R/T790M/C797S triple mutant (H520*) (Homo sapiens (Human), UniProt P00533, C797S/L858R/T790M); assay: EGFR protein degradation assay (Western blot); type: cell-based; conditions: 72 hours, 300 nM to 10 nM
Summary of the method: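 EGFR loss in the triple-mutant line measured by immunoblot: clarified lysates normalised by BCA, run on 4-12% Bis-Tris gels, blotted to PVDF, probed with HRP anti-rabbit secondary. Before lysis, cells were dosed from 1, 0.3, 0.1, 0.03 and 0.01 mM DMSO stocks (not final concentrations) after overnight culture at 37° C.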

EGFR Δ19/746/750 T790M = EGFR Δ19/746/750 T790M (Homo sapiens (Human), UniProt P00533, DEL746-750/T790M); assay: TR-FRET assay for ERBB kinases; type: biochemical; conditions: geometric mean if measured more than once
Summary of the method: (§2)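 Compounds pre-incubated 10 min with kinase in HEPES pH 7.5 buffer (MgCl2, DTT, Pluronic), then reaction started with substrate mix (3 mM ATP, 30 µM fluorescein-poly-GluTyr, stock levels) for 10 min at room temperature. EDTA-quenched, detected by Tb-pY20 antibody TR-FRET (520/490 nm emission).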

EGFR Δ19/746/750 = EGFR Δ19/746/750 (Homo sapiens (Human), UniProt P00533, DEL746-750); assay: TR-FRET assay for ERBB kinases; type: biochemical; conditions: geometric mean if measured more than once
Summary of the method: as §2

[2] = target: EGFR-wt (MDA-MB-231 or MCF7 or A549 or OVCAR8) (Homo sapiens (Human), UniProt P00533); assay: EGFR protein degradation assay (Western blot); type: cell-based; conditions: 72 hours, 300 nM to 10 nM
Summary of the method: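 Cells carrying the relevant EGFR form were plated at 300,000 per well in 6-well plates and left overnight to attach. For harvest, cells were rinsed once in ice-cold PBS and lysed in 400 μl lysis buffer containing protease inhibitors. Lysates were cleared at 10 000 rpm for 10 minutes and their protein content measured by BCA. Then 10 μg per sample was separated by SDS/PAGE at 165V for 2 hours, and EGFR was detected by ECL on a Chemidoc.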

EGFR Exon 20 ASV (HeLa*) = EGFR Exon 20 ASV (HeLa*) (Homo sapiens (Human), UniProt P00533, DUP767-769); assay: EGFR protein degradation assay (Western blot); type: cell-based; conditions: 72 hours, 300 nM to 10 nM
EGFR Exon20NPG = EGFR Exon20NPG (Homo sapiens (Human), UniProt P00533, INS770NPG); assay: TR-FRET assay for ERBB kinases; type: biochemical; conditions: geometric mean if measured more than once
Summary of the method: as §2

Chain of EGFR Δ19/746/750 (P00533 other isoform, or with tags, fused parts or gaps del 1-694/del 746-750 limits assumed): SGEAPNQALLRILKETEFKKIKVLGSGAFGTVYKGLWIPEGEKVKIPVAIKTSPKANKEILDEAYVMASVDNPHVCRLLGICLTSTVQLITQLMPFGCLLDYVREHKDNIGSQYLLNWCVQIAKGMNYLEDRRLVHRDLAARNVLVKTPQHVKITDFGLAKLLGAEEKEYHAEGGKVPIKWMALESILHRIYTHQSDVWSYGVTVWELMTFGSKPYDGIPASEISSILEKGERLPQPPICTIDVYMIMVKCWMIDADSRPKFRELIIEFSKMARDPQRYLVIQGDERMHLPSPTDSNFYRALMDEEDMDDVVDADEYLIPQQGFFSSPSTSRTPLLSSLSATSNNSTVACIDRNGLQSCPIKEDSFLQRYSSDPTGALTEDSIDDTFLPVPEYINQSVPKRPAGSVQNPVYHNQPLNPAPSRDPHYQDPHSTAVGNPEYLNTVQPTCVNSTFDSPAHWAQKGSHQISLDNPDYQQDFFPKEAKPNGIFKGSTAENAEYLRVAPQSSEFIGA
Chain of EGFR Δ19/746/750 T790M (P00533 other isoform, or with tags, fused parts or gaps T790M/del 1-694/del 746-750 limits assumed): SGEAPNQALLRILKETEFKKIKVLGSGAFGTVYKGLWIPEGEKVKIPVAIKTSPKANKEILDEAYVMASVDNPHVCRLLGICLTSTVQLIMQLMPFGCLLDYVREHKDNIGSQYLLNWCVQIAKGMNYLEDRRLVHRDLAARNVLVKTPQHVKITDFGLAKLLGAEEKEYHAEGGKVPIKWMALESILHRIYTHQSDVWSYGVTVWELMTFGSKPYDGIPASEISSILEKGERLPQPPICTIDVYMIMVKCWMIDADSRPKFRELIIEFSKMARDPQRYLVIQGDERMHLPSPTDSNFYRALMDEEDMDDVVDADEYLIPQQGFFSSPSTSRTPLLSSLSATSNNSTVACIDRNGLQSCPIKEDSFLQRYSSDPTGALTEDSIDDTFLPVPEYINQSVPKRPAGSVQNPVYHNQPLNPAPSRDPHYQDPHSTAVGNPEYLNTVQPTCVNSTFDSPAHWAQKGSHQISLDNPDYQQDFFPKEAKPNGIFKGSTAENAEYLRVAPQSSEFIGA
Chain of EGFR Exon20NPG (P00533 other isoform, or with tags, fused parts or gaps del 1-694/ins NPG behind 770 limits assumed): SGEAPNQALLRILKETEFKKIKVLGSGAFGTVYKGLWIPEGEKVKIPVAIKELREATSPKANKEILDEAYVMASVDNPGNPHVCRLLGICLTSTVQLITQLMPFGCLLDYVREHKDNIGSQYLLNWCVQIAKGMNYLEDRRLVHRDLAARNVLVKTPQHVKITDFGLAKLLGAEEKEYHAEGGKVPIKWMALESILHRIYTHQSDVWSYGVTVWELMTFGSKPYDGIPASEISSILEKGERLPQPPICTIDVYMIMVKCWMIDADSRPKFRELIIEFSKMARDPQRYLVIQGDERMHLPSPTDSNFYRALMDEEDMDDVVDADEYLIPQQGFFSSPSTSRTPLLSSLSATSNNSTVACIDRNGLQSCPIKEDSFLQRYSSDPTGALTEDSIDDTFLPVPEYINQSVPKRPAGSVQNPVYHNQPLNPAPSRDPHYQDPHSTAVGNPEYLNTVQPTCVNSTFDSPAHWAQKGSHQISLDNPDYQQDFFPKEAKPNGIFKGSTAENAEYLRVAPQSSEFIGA
Chain of EGFR L858R/T790M (P00533 25-1210 T790M/L858R): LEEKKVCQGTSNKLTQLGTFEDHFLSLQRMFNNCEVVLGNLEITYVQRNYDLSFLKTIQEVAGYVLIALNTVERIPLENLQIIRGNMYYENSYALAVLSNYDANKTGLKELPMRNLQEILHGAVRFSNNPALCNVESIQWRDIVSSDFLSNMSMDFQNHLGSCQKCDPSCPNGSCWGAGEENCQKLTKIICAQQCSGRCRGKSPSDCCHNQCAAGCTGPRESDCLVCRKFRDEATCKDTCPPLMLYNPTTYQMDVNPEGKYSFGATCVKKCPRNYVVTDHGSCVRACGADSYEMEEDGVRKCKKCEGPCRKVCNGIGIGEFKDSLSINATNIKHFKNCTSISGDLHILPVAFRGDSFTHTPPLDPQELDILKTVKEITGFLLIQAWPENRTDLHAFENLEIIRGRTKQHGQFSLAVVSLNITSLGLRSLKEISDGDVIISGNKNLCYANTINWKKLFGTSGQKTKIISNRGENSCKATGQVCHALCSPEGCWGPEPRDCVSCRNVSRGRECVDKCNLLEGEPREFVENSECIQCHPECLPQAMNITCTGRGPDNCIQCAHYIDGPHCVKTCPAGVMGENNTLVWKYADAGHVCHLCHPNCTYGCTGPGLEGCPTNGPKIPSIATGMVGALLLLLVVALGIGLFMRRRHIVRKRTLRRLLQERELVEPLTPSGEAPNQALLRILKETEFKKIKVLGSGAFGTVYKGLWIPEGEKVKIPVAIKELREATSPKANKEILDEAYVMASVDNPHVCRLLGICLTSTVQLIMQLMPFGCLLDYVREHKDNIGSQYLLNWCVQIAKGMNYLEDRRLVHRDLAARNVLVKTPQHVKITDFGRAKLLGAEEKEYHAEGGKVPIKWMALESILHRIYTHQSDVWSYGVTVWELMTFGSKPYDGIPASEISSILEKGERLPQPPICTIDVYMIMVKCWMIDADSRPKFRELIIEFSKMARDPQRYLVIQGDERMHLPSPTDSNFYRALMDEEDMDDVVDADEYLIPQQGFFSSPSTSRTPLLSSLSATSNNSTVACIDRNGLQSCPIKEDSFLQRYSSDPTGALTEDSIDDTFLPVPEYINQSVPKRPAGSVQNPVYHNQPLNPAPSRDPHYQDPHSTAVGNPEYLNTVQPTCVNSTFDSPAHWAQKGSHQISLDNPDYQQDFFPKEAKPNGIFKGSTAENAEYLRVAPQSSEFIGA
Chain of EGFR Exon 20 ASV (HeLa*) (P00533 other isoform, or with tags, fused parts or gaps dup 767-769): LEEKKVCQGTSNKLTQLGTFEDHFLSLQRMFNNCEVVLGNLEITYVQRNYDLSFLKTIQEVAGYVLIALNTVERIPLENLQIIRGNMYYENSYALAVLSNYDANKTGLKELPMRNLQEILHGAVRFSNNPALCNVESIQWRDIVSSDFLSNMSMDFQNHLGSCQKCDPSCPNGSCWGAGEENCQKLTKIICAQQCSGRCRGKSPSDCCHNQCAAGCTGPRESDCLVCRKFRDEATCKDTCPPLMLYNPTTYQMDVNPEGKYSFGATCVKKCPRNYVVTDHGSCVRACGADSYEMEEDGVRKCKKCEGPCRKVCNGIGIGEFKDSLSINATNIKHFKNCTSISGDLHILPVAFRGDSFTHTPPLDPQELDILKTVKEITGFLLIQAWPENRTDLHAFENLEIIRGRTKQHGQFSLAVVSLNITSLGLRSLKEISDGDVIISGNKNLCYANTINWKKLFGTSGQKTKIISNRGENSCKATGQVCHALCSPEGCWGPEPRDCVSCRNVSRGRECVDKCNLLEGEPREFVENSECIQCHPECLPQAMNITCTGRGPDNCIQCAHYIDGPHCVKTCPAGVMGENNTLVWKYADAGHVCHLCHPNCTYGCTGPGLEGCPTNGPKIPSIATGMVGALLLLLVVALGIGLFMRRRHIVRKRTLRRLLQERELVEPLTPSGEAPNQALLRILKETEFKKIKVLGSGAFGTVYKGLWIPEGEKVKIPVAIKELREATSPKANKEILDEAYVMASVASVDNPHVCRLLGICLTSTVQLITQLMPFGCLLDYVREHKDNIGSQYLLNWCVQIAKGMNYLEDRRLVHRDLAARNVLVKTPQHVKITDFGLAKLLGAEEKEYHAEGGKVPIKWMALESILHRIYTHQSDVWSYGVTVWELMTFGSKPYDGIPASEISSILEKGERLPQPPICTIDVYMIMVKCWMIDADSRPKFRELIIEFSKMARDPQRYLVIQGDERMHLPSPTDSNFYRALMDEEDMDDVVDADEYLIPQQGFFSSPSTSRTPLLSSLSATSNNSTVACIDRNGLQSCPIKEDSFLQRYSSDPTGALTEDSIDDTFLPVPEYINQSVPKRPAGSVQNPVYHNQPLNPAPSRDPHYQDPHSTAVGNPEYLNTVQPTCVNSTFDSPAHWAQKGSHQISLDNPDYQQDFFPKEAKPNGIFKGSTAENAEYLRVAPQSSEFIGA
Chain of EGFR L858R/T790M/C797S triple mutant (H520*) (P00533 25-1210 T790M/C797S/L858R): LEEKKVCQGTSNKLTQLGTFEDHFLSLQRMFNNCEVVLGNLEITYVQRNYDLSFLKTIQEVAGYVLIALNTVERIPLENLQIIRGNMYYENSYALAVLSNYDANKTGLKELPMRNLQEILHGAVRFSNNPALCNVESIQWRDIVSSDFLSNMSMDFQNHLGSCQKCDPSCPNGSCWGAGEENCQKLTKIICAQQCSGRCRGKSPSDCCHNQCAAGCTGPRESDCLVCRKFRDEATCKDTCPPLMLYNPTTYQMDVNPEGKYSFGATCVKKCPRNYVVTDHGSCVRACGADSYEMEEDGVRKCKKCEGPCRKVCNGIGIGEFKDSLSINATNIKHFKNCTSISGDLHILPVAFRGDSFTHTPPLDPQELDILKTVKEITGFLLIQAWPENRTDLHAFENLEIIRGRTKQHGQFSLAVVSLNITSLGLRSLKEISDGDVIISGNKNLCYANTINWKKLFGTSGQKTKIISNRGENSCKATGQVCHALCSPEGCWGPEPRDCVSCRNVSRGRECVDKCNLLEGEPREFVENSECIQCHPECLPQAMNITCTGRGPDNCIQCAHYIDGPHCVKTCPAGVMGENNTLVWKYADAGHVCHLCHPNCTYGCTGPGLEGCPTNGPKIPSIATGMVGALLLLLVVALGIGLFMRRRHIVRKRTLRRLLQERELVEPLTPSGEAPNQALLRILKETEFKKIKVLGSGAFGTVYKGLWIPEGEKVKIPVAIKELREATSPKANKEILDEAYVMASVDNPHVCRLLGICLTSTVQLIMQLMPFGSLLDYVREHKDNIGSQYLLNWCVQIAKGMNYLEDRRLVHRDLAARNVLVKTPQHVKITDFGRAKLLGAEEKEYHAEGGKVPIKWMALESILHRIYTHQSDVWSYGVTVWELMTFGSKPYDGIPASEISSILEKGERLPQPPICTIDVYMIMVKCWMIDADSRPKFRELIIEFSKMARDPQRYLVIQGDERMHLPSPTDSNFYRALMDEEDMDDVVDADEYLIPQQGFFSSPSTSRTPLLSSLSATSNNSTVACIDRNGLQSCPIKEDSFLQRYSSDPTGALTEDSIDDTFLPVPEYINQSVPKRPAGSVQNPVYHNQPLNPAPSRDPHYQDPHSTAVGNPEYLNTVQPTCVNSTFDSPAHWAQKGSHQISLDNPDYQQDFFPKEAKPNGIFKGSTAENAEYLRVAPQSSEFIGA

Row | SMILES | IC50 (EGFR L858R/T790M) | IC50 (EGFR WT) | IC50 (EGFR L858R/T790M/C797S) | EGFR protein remaining, EGFR L858R/T790M/C797S triple mutant [1] | IC50 (EGFR Δ19/746/750 T790M) | IC50 (EGFR Δ19/746/750) | EGFR protein remaining, EGFR-wt [2] | EGFR protein remaining, EGFR Exon 20 ASV (EGFR Exon 20 ASV (HeLa*)) | IC50 (EGFR Exon20NPG)
1 | Cc1ncsc1-c1ccc([C@H](C)NC(=O)[C@@H]2C[C@@H](O)CN2C(=O)[C@@H](NC(=O)COCCCOc2ccc(N3CCN(CCOCc4nc5cnc(Nc6ccnc(-c7cnn(S(=O)(=O)C8CC8)c7)n6)cc5n4C(C)C)CC3)cc2)C(C)(C)C)cc1 [compound 306] | 53 nM | 13000 nM | 16 nM | A (≤50% EGFR protein remaining after 72 hours of incubation with the test compound at a concentration between 300 nM and 10 nM) | 21 nM | 380 nM | – | – | –
2 | Cc1ncsc1-c1ccc([C@H](C)NC(=O)[C@@H]2C[C@@H](O)CN2C(=O)[C@@H](NC(=O)COCCOCCOCCN2CCN(CCOCC#Cc3cccc4c3C(=O)N(C(C(=O)Nc3nccs3)c3cc(F)ccc3O)C4)CC2)C(C)(C)C)cc1 (stereo partly drawn) [compound 310] | 110 nM | 140 nM | 22 nM | B (≤80% and >50% EGFR protein remaining after 72 hours of incubation with the test compound at a concentration between 300 nM and 10 nM) | 8400 nM | 6000 nM | – | – | –
3 | COC1CCN(c2nccc(Nc3cc4c(cn3)nc(COCCN3CCN(c5ccc(OCCCN6CCN(c7ccc8c(c7)C(=O)N(C7CCC(=O)NC7=O)C8=O)CC6)cc5)CC3)n4C(C)C)n2)CC1 (stereo not drawn) [Example 301, 2-(2,6-dioxopiperidin-3-yl)-5-(4-(3-(4-(4-(2-((1-isopropyl-6-((2-(4-methoxypiperidin-1-yl)pyrimidin-4-yl)amino)-1H-imidazo[4,5-c]pyridin-2-yl)methoxy)ethyl)piperazin-1-yl)phenoxy)propyl)piperazin-1-yl)isoindoline-1,3-dione] | 240 nM | 2800 nM | 34 nM | C (>80% EGFR protein remaining after 72 hours of incubation with the test compound at a concentration of 300 nM) | 270 nM | 1600 nM | – | – | –
4 | CC(C)n1nc(N2CC(CN[C@H]3C[C@H](Oc4ccc5c(c4)C(=O)N(C4CCC(=O)NC4=O)C5=O)C3)C2)c2cnc(Nc3ccnc(-c4cnn(S(=O)(=O)C5CC5)c4)n3)cc21 (stereo partly drawn) [compound 319] | 2.3 nM | 4.2 nM | 0.8 nM | A (≤50% EGFR protein remaining after 72 hours of incubation with the test compound at a concentration between 300 nM and 10 nM) | 0.3 nM | 1.3 nM | – | – | –
5 | CC(C)n1nc(N2CC(CN3CCN(CC4CCN(c5ccc6c(c5)C(=O)N(C5CCC(=O)NC5=O)C6=O)CC4)CC3)C2)c2cnc(Nc3ccnc(-c4cnn(S(=O)(=O)C5CC5)c4)n3)cc21 (stereo not drawn) [compound 314] | 98 nM | 89 nM | 20 nM | C (>80% EGFR protein remaining after 72 hours of incubation with the test compound at a concentration of 300 nM) | 5200 nM | 10000 nM | – | – | –
6 | CC(C)n1nc(N2CCN(CC3CCN(c4ccc5c(c4)C(=O)N(C4CCC(=O)NC4=O)C5=O)CC3)CC2)c2cnc(Nc3ccnc(-c4cnn(S(=O)(=O)C5CC5)c4)n3)cc21 (stereo not drawn) [compound 312] | 0.67 nM | 95 nM | 0.35 nM | B (≤80% and >50% EGFR protein remaining after 72 hours of incubation with the test compound at a concentration between 300 nM and 10 nM) | 4.9 nM | 170 nM | – | – | –
7 | Cc1ncsc1-c1ccc([C@H](C)NC(=O)[C@@H]2C[C@@H](O)CN2C(=O)[C@@H](NC(=O)COCCN2CCN(CCOCCOCCOCC#Cc3cccc4c3C(=O)N(C(C(=O)Nc3nccs3)c3cc(F)ccc3O)C4)CC2)C(C)(C)C)cc1 (stereo partly drawn) [compound 311] | 65 nM | 97 nM | 16 nM | B (≤80% and >50% EGFR protein remaining after 72 hours of incubation with the test compound at a concentration between 300 nM and 10 nM) | 4600 nM | 9000 nM | – | – | –
8 | Cc1ncsc1-c1ccc(CNC(=O)[C@@H]2C[C@@H](O)CN2C(=O)[C@H](C(C)C)N2Cc3ccccc3C2=O)c(OCCN2CCN(Cc3ccc(-c4cc5c(NCc6ccccc6Cl)ncnc5[nH]4)cc3)CC2)c1 [Example 106, (2S,4R)—N-(2-(2-(4-(4-(4-((2-chlorobenzyl)amino)-7H-pyrrolo[2,3-d]pyrimidin-6-yl)benzyl)piperazin-1-yl)ethoxy)-4-(4-methylthiazol-5-yl)benzyl)-4-hydroxy-1-((S)-3-methyl-2-(1-oxoisoindolin-2-yl)butanoyl)pyrrolidine-2-carboxamide] | 4900 nM | 470 nM | 5200 nM | – | – | – | C (>80% EGFR protein remaining after 72 hours of incubation with the test compound at a concentration of 300 nM) | C (>80% EGFR protein remaining after 72 hours of incubation with the test compound at a concentration of 300 nM) | 1900 nM
9 | Cc1ncsc1-c1ccc([C@H](C)NC(=O)[C@@H]2C[C@@H](O)CN2C(=O)[C@@H](NC(=O)COCCOCCCNCC2CN(c3nn(C(C)C)c4cc(Nc5ccnc(-c6cnn(S(=O)(=O)C7CC7)c6)n5)ncc34)C2)C(C)(C)C)cc1 [compound 308] | 0.91 nM | 120 nM | 0.27 nM | B (≤80% and >50% EGFR protein remaining after 72 hours of incubation with the test compound at a concentration between 300 nM and 10 nM) | 2.1 nM | 53 nM | – | – | –
10 | O=C1CCC(N2C(=O)c3ccc(OCCOCCOCCN4CCN(Cc5ccc(-c6cc7c(NCc8ccccc8Cl)ncnc7[nH]6)cc5)CC4)cc3C2=O)C(=O)N1 (stereo not drawn) [Example 17, 5-(2-(2-(2-(4-(4-(4-((2-chlorobenzyl)amino)-7H-pyrrolo[2,3-d]pyrimidin-6-yl)benzyl)piperazin-1-yl)ethoxy)ethoxy)ethoxy)-2-(2,6-dioxopiperidin-3-yl)isoindoline-1,3-dione] | 7200 nM | 220 nM | 4900 nM | – | – | – | C (>80% EGFR protein remaining after 72 hours of incubation with the test compound at a concentration of 300 nM) | C (>80% EGFR protein remaining after 72 hours of incubation with the test compound at a concentration of 300 nM) | 190 nM
11 | Cc1ncsc1-c1ccc(CNC(=O)[C@@H]2C[C@@H](O)CN2C(=O)[C@H](C(C)C)N2Cc3ccccc3C2=O)c(OCCOCCOCCN2CCN(Cc3ccc(-c4cc5c(NCc6ccccc6Cl)ncnc5[nH]4)cc3)CC2)c1 [Example 108, (2S,4R)—N-(2-(2-(2-(2-(4-(4-(4-((2-Chlorobenzyl)amino)-7H-pyrrolo[2,3-d]pyrimidin-6-yl)benzyl)piperazin-1-yl)ethoxy)ethoxy)ethoxy)-4-(4-methylthiazol-5-yl)benzyl)-4-hydroxy-1-((S)-3-methyl-2-(1-oxoisoindolin-2-yl)butanoyl)pyrrolidine-2-carboxamide] | 10000 nM | 770 nM | 7800 nM | – | – | – | C (>80% EGFR protein remaining after 72 hours of incubation with the test compound at a concentration of 300 nM) | C (>80% EGFR protein remaining after 72 hours of incubation with the test compound at a concentration of 300 nM) | 980 nM
12 | Cc1ncsc1-c1ccc([C@H](C)NC(=O)[C@@H]2C[C@@H](O)CN2C(=O)[C@@H](NC(=O)CN2CCN(CCOCCOCCOCCOCC#Cc3cccc4c3C(=O)N(C(C(=O)Nc3nccs3)c3cc(F)ccc3O)C4)CC2)C(C)(C)C)cc1 (stereo partly drawn) [compound 309] | 120 nM | 7.2 nM | 25 nM | C (>80% EGFR protein remaining after 72 hours of incubation with the test compound at a concentration of 300 nM) | 5100 nM | 1900 nM | – | – | –
